Assays:
[1] = test system: scopolamine-induced deficit in mice; assay: Modified light-dark box memory test in mice, scopolamine-induced deficit, drug given immediately post-training (Table 2); assay type: in vivo, Male albino CD-1 mice; conditions: for Mean latency Day 1 / Mean latency Day 2: ± SEM
Protocol: Male albino CD-1 mice obtained from Charles River were used. They were housed under controlled conditions (temperature 21±2 deg. C., humidity approx. 50%, 12 hour light/dark cycle, food and water ad lib) for one week before use. On the day before test, the mice were housed in groups of six in polythene boxes in the laboratory and marked for identification. Food and water were supplied ad lib. On the test day, animals were weighed and then dosed either 30 minutes before test (piracetam, ondansetron) one hour before test (compound A) or immediately after test.
[…] The dose volume was 10 ml/kg for all routes.
The apparatus consisted of two boxes with an opening 90 mm×60 mm at floor level between them. A plastic door was used to close the opening when required. The smaller box (290 mm×120 mm×120 mm high) was made of opaque plastics, open at the top to allow illumination by normal laboratory lighting. The larger box (305 mm square×280 mm high) was enclosed apart from the single opening.
This consisted of training, with retest 24 hours later. During training, animals were placed individually in the open box facing away from the end with the opening. After a period of exploration, they usually entered the dark box and the latency to entry in seconds was noted. The door to the dark box was closed, and after 30 seconds had elapsed, the animal was removed gently and returned to the holding box. Twenty-four hours later, an identical procedure was used, except that the session ended as soon as the animal had entered the dark box. The latency was again noted. During the interval, the animals were not handled, and were disturbed as little as possible. Each animal was used once only.
(§1) Test drugs or control fluids were given before or immediately after the training session.
Group comparisons were made between latencies to enter the dark compartment on the first and second occasions. For both training and retest occasions, comparisons were made between vehicle and treatment groups. The distribution of latencies was skewed on both learning and retest trials (data not shown), so the non-parametric Mann-Whitney U-test was used. The difference between latencies on the two occasions is presented as % decrease on Day 2 compared with Day 1.
The mean latency to enter the dark box±standard error of the mean was calculated from a group of 12 animals. For a given treatment, figures in the columns labelled `Day 1` and `Day 2` show the mean latencies taken from the same group of animals. The difference between data obtained on the two days is illustrated by showing the % decrease, and the data compared using the Mann-Whitney U-test; NS indicates a p value>0.1.

[2] = test system: scopolamine-induced deficit in rats; assay: Light-dark box memory test in rats, scopolamine-induced deficit, single dose pre-training (Tables 3 and 4); assay type: in vivo, Male Wistar rats; conditions: for Mean latency Day 1 / Mean latency Day 2: ± SEM
Protocol: (§2) Male Wistar rats obtained from Charles River were used. They were housed under controlled conditions (temperature 21±2 deg. C., humidity approx. 50%, 12 hour light/dark cycle, food and water ad lib) for one week before use. On the day before test the rats were permanently housed in groups of six. Food and water were supplied ad lib. On the test day, animals were weighed and then dosed either 30 minutes before test (midazolam), one hour before test (compound A) or immediately after test.
(§3) All drugs were dissolved or suspended in 0.25% (w/v) aqueous celacol, and administered orally (by gavage), i.p. or s.c. The dose volume was 5 ml/kg for all routes.
(§4) An identical apparatus to that described in Example 1 was used, except that the smaller box measured 370 mm×260 mm×190 mm.
(§5) This consisted of training as described for mice under section (d) of Example 1.
as §1
(§6) This was as described under section (e) of Example 1.

[3] = test system: scopolamine-induced deficit in rats; assay: Light-dark box memory test in rats, sub-acute dosing: pre-training, pre-training and pre-retest, or four pre-treatments and before training and retest (Table 5); assay type: in vivo, Male Wistar rats; conditions: for Mean latency Day 5 / Mean latency Day 6: ± SEM
Protocol: as §2
In the sub-acute dosing regimen (see `Procedure`) the rats, housed as above, received six doses of drug or vehicle by the oral route, each 24 hours apart.
as §3, §4, §5
The procedure was identical with that described above, except that seven groups of rats received compound A or control pre-treatment as 6 oral doses each 24 hours apart, as follows.
Training took place 1 hour after the fifth dose i.e. on day 5. […] The usual retest was performed 24 hours later (on day 6), one hour after the sixth oral treatment.
as §6
The mean latency to enter the dark box±standard error of the mean was calculated from a group of 24 animals (controls in first block) or 12 animals (all other treatments). For a given treatment, figures in the columns labelled `Day 5` and `Day 6` show the mean latencies taken from the same group of animals. The difference between data obtained on the two days is illustrated by showing the % decrease, and the data compared using the Mann-Whitney U-test.

[4] = test system: voltage-sensitive sodium channels; conditions: Lang et al 1993; Lees and Leach 1993; cited from earlier work
[5] = saline s.c. + compound A 20 mg/kg i.v. post-training
[6] = saline s.c. + compound A 40 mg/kg p.o. post-training
[7] = scopolamine 1 mg/kg s.c. + compound A 20 mg/kg i.v. post-training
[8] = scopolamine 1 mg/kg s.c. + compound A 40 mg/kg p.o. post-training
[9] = saline s.c. + compound A 40 mg/kg p.o.
[10] = scopolamine 0.1 mg/kg s.c. + compound A 10 mg/kg p.o.
[11] = scopolamine 0.1 mg/kg s.c. + compound A 20 mg/kg p.o.
[12] = scopolamine 0.1 mg/kg s.c. + compound A 40 mg/kg p.o.
[13] = saline + compound A 2.5 mg/kg p.o. days 1-6
[14] = saline + compound A 10 mg/kg p.o. day 5 only
[15] = saline + compound A 10 mg/kg p.o. days 1-6
[16] = saline + compound A 10 mg/kg p.o. days 5 and 6
[17] = saline + compound A 40 mg/kg p.o. day 5 only
[18] = saline + compound A 40 mg/kg p.o. days 5 and 6
[19] = scopolamine 0.1 mg/kg s.c. + compound A 2.5 mg/kg p.o. days 1-6
[20] = scopolamine 0.1 mg/kg s.c. + compound A 10 mg/kg p.o. day 5 only
[21] = scopolamine 0.1 mg/kg s.c. + compound A 10 mg/kg p.o. days 1-6
[22] = scopolamine 0.1 mg/kg s.c. + compound A 10 mg/kg p.o. days 5 and 6
[23] = scopolamine 0.1 mg/kg s.c. + compound A 40 mg/kg p.o. day 5 only
[24] = scopolamine 0.1 mg/kg s.c. + compound A 40 mg/kg p.o. days 5 and 6

Q: Which results are given for `Nc1nnc(-c2cccc(Cl)c2Cl)c(N)n1` [Compound A, 3,5-Diamino-6-(2,3-dichlorophenyl)-1,2,4-triazine]?
A: Reversal of scopolamine-induced deficit ([1]; compound A 20 mg/kg i.v. post-training): no reversal of the scopolamine-induced deficit; Reversal of scopolamine-induced deficit ([1]; compound A 40 mg/kg p.o. post-training): no reversal of the scopolamine-induced deficit; Difference between days, % Decrease ([1]; saline s.c. + compound A 20 mg/kg i.v. post-training, p (0.09)): 26%; Mean latency Day 1 [1, 5]: 19.9 ± 2.7 s; Mean latency Day 2 [1, 5]: 14.8 ± 2.1 s; Difference between days, % Decrease ([1]; saline s.c. + compound A 40 mg/kg p.o. post-training, p <0.05): 30%; Mean latency Day 1 [1, 6]: 20.0 ± 2.3 s; Mean latency Day 2 [1, 6]: 13.9 ± 1.5 s; Difference between days, % Decrease ([1]; scopolamine 1 mg/kg s.c. + compound A 20 mg/kg i.v. post-training, p NS): -1%; Mean latency Day 1 [1, 7]: 20.0 ± 2.3 s; Mean latency Day 2 [1, 7]: 20.3 ± 2.5 s; Difference between days, % Decrease ([1]; scopolamine 1 mg/kg s.c. + compound A 40 mg/kg p.o. post-training, p NS): -23%; Mean latency Day 1 [1, 8]: 18.5 ± 1.8 s; Mean latency Day 2 [1, 8]: 22.7 ± 2.6 s; Difference between days, % Decrease ([2]; saline s.c. + compound A 40 mg/kg p.o., p <0.001): 50%; Mean latency Day 1 [2, 9]: 38.3 ± 3.8 s; Mean latency Day 2 [2, 9]: 19.3 ± 3.0 s; Difference between days, % Decrease ([2]; scopolamine 0.1 mg/kg s.c. + compound A 10 mg/kg p.o., p NS): 0%; Mean latency Day 1 [2, 10]: 40.8 ± 4.8 s; Mean latency Day 2 [2, 10]: 40.8 ± 4.6 s; Difference between days, % Decrease ([2]; scopolamine 0.1 mg/kg s.c. + compound A 20 mg/kg p.o., p NS*): 16%; Mean latency Day 1 [2, 11]: 37.7 ± 4.4 s; Mean latency Day 2 [2, 11]: 31.7 ± 3.9 s; Difference between days, % Decrease ([2]; scopolamine 0.1 mg/kg s.c. + compound A 40 mg/kg p.o., p <0.01): 45%; Mean latency Day 1 [2, 12]: 38.4 ± 4.1 s; Mean latency Day 2 [2, 12]: 21.1 ± 3.6 s; Effect on scopolamine-induced deficit ([3]; compound A single dose 10 mg/kg before the learning trial): did not alter the scopolamine-induced deficit; Diff. between days, % ([3]; saline + compound A 2.5 mg/kg p.o. days 1-6, p <0.01): 46%; Mean latency Day 5 [3, 13]: 35.3 ± 3.7 s; Mean latency Day 6 [3, 13]: 19.3 ± 2.5 s; Diff. between days, % ([3]; saline + compound A 10 mg/kg p.o. day 5 only, p <0.001): 52%; Mean latency Day 5 [3, 14]: 39.8 ± 3.9 s; Mean latency Day 6 [3, 14]: 19.3 ± 2.5 s; Diff. between days, % ([3]; saline + compound A 10 mg/kg p.o. days 1-6, p <0.01): 44%; Mean latency Day 5 [3, 15]: 34.3 ± 3.6 s; Mean latency Day 6 [3, 15]: 19.1 ± 3.4 s; Diff. between days, % ([3]; saline + compound A 10 mg/kg p.o. days 5 and 6, p <0.001): 48%; Mean latency Day 5 [3, 16]: 37.2 ± 3.1 s; Mean latency Day 6 [3, 16]: 19.3 ± 2.6 s; Diff. between days, % ([3]; saline + compound A 40 mg/kg p.o. day 5 only, p <0.01): 45%; Mean latency Day 5 [3, 17]: 35.2 ± 3.4 s; Mean latency Day 6 [3, 17]: 19.3 ± 3.4 s; Diff. between days, % ([3]; saline + compound A 40 mg/kg p.o. days 5 and 6, p <0.001): 50%; Mean latency Day 5 [3, 18]: 36.0 ± 3.2 s; Mean latency Day 6 [3, 18]: 17.8 ± 2.2 s; Diff. between days, % ([3]; scopolamine 0.1 mg/kg s.c. + compound A 2.5 mg/kg p.o. days 1-6, p NS): 16%; Mean latency Day 5 [3, 19]: 33.8 ± 3.0 s; Mean latency Day 6 [3, 19]: 28.4 ± 3.4 s; Diff. between days, % ([3]; scopolamine 0.1 mg/kg s.c. + compound A 10 mg/kg p.o. day 5 only, p NS): -4%; Mean latency Day 5 [3, 20]: 34.3 ± 2.8 s; Mean latency Day 6 [3, 20]: 15.8 ± 4.5 s; Diff. between days, % ([3]; scopolamine 0.1 mg/kg s.c. + compound A 10 mg/kg p.o. days 1-6, p <0.01): 41%; Mean latency Day 5 [3, 21]: 35.4 ± 3.2 s; Mean latency Day 6 [3, 21]: 20.8 ± 3.6 s; Diff. between days, % ([3]; scopolamine 0.1 mg/kg s.c. + compound A 10 mg/kg p.o. days 5 and 6, p NS (0.1)): 28%; Mean latency Day 5 [3, 22]: 38.2 ± 4.3 s; Mean latency Day 6 [3, 22]: 27.7 ± 3.5 s; Diff. between days, % ([3]; scopolamine 0.1 mg/kg s.c. + compound A 40 mg/kg p.o. day 5 only, p printed #0.001): 46%; Mean latency Day 5 [3, 23]: 33.3 ± 2.6 s; Mean latency Day 6 [3, 23]: 18.0 ± 2.0 s; Diff. between days, % ([3]; scopolamine 0.1 mg/kg s.c. + compound A 40 mg/kg p.o. days 5 and 6, p <0.01): 48%; Mean latency Day 5 [3, 24]: 33.6 ± 3.6 s; Mean latency Day 6 [3, 24]: 17.5 ± 2.5 s; Block of voltage-sensitive sodium channels [4]: use-dependent block of voltage-sensitive sodium channels

Source: patent US5866597A, “Use of triazine compounds for the treatment of memory and learning disorders” (Glaxo Wellcome Inc., priority 1993, dated 1999)
